Laboratory results from PMC12687421, “Characterisation of an allosteric site in PLCγ enzymes and implications for development of their specific inhibitors” (Biochemical Journal, 2025).

Molecular target: T1, hPLCγ1 (Homo sapiens, UniProt P19174, I813T)
T1 construct: specific activities of PLCγ1^wt and PLCγ2^wt full-length proteins; made in house; host or cells: Escherichia coli T7 Express lysY/Iq
T1 sequence (P19174 1-1291 isoform P19174-2 I813T): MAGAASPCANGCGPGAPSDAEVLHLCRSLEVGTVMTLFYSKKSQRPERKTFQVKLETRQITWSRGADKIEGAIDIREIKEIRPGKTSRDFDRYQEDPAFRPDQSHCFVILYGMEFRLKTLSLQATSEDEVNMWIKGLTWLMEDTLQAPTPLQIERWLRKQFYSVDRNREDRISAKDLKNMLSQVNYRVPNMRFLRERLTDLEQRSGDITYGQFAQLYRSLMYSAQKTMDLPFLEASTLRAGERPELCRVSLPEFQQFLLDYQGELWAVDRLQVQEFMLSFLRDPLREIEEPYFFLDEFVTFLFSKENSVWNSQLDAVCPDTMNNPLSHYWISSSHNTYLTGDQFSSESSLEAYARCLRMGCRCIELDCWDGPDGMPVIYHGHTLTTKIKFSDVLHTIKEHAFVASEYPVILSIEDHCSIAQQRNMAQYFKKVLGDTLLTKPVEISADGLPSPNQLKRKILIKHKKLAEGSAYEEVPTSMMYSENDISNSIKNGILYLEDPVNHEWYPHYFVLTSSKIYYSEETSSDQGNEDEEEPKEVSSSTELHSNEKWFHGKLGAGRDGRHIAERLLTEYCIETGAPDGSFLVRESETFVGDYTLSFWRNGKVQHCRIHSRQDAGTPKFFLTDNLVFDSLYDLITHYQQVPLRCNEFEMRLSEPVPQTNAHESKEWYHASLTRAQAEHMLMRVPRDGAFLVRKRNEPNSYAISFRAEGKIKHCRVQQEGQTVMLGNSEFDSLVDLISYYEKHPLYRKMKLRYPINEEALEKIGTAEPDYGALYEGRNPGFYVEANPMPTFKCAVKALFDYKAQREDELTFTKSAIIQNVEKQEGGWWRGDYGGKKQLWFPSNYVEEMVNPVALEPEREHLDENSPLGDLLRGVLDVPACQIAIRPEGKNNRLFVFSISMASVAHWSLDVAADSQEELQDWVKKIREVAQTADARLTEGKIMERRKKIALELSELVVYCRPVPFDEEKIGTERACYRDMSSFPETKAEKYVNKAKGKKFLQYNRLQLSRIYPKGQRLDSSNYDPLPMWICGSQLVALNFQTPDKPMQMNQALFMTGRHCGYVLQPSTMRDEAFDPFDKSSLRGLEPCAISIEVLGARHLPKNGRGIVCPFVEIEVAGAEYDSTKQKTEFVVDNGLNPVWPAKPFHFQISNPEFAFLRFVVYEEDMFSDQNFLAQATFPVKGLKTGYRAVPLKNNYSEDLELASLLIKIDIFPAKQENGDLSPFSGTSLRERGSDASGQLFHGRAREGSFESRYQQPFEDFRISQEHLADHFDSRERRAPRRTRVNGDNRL
Experiment: Hydrogen deuterium exchange mass spectrometry (HDX-MS), apo vs 10 µM ADP
Assay type: binding
Protocol: HDX reactions comparing apo hPLCγ1 to hPLCγ1 incubated with ADP were carried out in a 15 µl reaction volume containing 10 pmol of hPLCγ1 (0.67 µM) and 10 µM of ADP and 1.67% DMSO. The exchange reactions were initiated by the addition of 10.0 µl of D2O buffer (25 mM HEPES pH 7.5, 150 mM NaCl, 2 mM TCEP 92.25% D2O (V/V)) to 5.0 µl of protein (final D2O concentration of 61.5%). Reactions proceeded for 3 s at 0°C, 30 s, 300 s and 3000 s at 20°C before being quenched with ice cold acidic quench buffer, resulting in a final concentration of 0.6M guanidine HCl and 0.9% formic acid post quench. All conditions and time points were created and run in independent triplicate. Samples were flash frozen immediately after quenching and stored at -80°C until injected onto the ultra-performance liquid chromatography (UPLC) system for proteolytic cleavage, peptide separation and injection onto a QTOF for mass analysis, described below.
Protein samples were rapidly thawed and injected onto an integrated fluidics system containing a HDx-3 PAL liquid handling robot and climate-controlled (2°C) chromatography system (Trajan), a Waters Acquity UPLC I-Class Series System, as well as an Impact HD QTOF Mass spectrometer (Bruker). The full details of the automated LC system were previously described. The samples were run over an immobilised pepsin column (Affipro; Enzymate Protein Pepsin Column, 2.1 mm X 20 mm) at 200 µl/min for 3 minutes at 2°C. […]
Peptides were identified from the non-deuterated samples of p110α using data-dependent acquisition following tandem MS/MS experiments (0.5 s precursor scan from 150 to 2000 m/z; twelve 0.25 s fragment scans from 150 to 2000 m/z). MS/MS datasets were analysed using FragPipe v18.0 and peptide identification was carried out by using a false discovery-based approach using a database of purified proteins and known contaminants [[35–37]]. […]
HD-Examiner Software (Trajan) was used to automatically calculate the level of deuterium incorporation into each peptide. […] Deuteration levels were calculated using the centroid of the experimental isotope clusters. […]

difference in deuterium exchange (increase in exchange) (amino acids 24–35 in the nPH domain): 4.5–10% | difference in deuterium exchange (protection) (amino acids 330–347, 367–386, 863–882 and 957–973): 4.5–10% | difference in deuterium exchange (protection) (amino acids 481–495): > 10%
SMILES: Nc1ncnc2c1ncn2[C@@H]1O[C@H](COP(=O)(O)OP(=O)(O)O)[C@@H](O)[C@H]1O [ADP]
